Measurements as given in US5834259A, “Process and composition for preparing D-aspartic acid” (Monsanto Company, priority 1996, dated 1998).

Assays:
Format in all cases: biochemical, E. coli K12
[1] = target: T1, L-aspartate-α-decarboxylase (Escherichia coli, UniProt P0A790); experiment: Temperature study, 45° C. (Example 9); details: for concentration in supernatant fluid / percent remaining: 1.0M, 100 g/l cells
T1 construct: expressed in transfected cells; host or cells: E. coli W3110 transformed with pIF309 = strain NS3291 (ATCC 98675), whole cells
Protocol: 133.1 g (1 mol) of D/L-aspartic acid was dissolved in deionized H2 O and the pH was adjusted to 7.0 with 10N NaOH, approximately 100 ml. Cells, freshly thawed from -80° C., were added to achieve a final concentration of 100 g/l. Three 2 L fermentors were each charged with 963 ml of substrate solution and 137 ml of cells and then heated to 37° C. and 45° C. while mixing at 300 rpm or heated to 50° C. while mixing at 450 rpm. Samples, approximately 1 ml, were removed over time and pH adjusted to 7.0 with either NaOH or HCl. After centrifugation to remove cells, the supernatant fluid was analyzed for both D- and L-aspartic acid.

[2] = target: T1, L-aspartate-α-decarboxylase; experiment: 1.0M D/L-aspartate, 50 g/l cells, reaction B (Example 6); details: 37° C.
Protocol: 1.0M D/L-aspartate was tested as a substrate for two enzyme cell loads, 100 g/l cells, referred to here as reaction "A", and 50 g/l cells, referred to here as reaction "B".
133.1 g of D/L-aspartic acid was dissolved in approximately 600 ml deionized H2 O and pH was adjusted to 7.0 with NaOH, using 100 ml of 10N NaOH and a small amount of 1.0N NaOH. The substrate for reaction A was brought to 963 ml with deionized H2 O. The reaction was started with 137 ml cells that were stored in the cold room. For reaction B, the substrate was brought to a volume of 981.5 ml. The reaction was started with […] cells.
Both reactions were carried out in 2 L fermentors at pH 7.0 without constant adjustments and at 37° C. Samples were removed over time, centrifuged and the supernatant fluid was diluted and submitted for D- and L-aspartic acid HPLC analysis.

[3] = target: T1, L-aspartate-α-decarboxylase; experiment: Re-use of cells on fresh 0.5M D/L-aspartate (Example 5); details: re-used cells, 37° C.
Protocol: Cells that had already been used in Example 3 were put in fresh substrate to determine if they were still active.
Fresh D/L-aspartate substrate was prepared as previously described in Example 3. The cells from Example 3 were resuspended in deionized H2 O and made up to 100 ml. The pH of the substrate (900 ml, 0.5M D/L-Asp) was adjusted to 7.0 with NaOH. After placing in the 2 L fermentor, the cells (100 ml) were added. There was no pH control and deionized H2 O was used for substrate. Samples were removed over time, centrifuged and the supernatant fluid diluted appropriately for both D- and L-aspartic acid determination. Temperature was set at 37° C.

[4] = target: T1, L-aspartate-α-decarboxylase; experiment: NH4OH neutralized 1.0M D/L-aspartate substrate (Example 7); details: 1.0M, NH4OH neutralized, 37° C.
Protocol: Cells were stored frozen at -80° C. 133.1 g (1 mol) D/L-aspartic acid was dissolved in approximately 600 ml deionized H2 O and adjusted to a pH of about 7 with concentrated NH4 OH. The final volume of substrate was brought to 963 ml to which was added 137 ml cells, freshly thawed. The mixture was placed in the 2 L fermentor and the temperature adjusted to 37° C. No automatic pH control was used, however, the pH was monitored as samples were removed and the pH adjusted with 50% NH4 OH. Samples, approximately 1 ml, were removed periodically, centrifuged, and the supernatant fluid was stored frozen prior to diluting and HPLC analysis.

T1 sequence (P0A790 25-126): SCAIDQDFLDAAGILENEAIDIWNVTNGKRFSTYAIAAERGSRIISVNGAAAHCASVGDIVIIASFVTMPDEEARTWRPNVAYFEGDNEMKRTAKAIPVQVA
T1 sequence (P0A790 1-24): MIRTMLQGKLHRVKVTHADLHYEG

N[C@H](CC(=O)O)C(=O)O [D-Asp, D-aspartic acid]
stability of the isomer [1]: stable | concentration in supernatant fluid ([1]; 0.000 hr): 55.280 mg/mL | concentration in supernatant fluid ([1]; 2.5000 hr): 54.820 mg/mL | percent remaining ([1]; 2.5000 hr): 99.168% | concentration in supernatant fluid ([1]; 4.0000 hr): 53.960 mg/mL | percent remaining ([1]; 4.0000 hr): 97.612% | concentration in supernatant fluid ([1]; 6.0000 hr): 53.460 mg/mL | percent remaining ([1]; 6.0000 hr): 96.708% | concentration in supernatant fluid ([1]; 8.0000 hr): 54.040 mg/mL | percent remaining ([1]; 8.0000 hr): 97.757% | concentration in supernatant fluid ([1]; 10.000 hr): 54.870 mg/mL | percent remaining ([1]; 10.000 hr): 99.258% | concentration in supernatant fluid ([1]; 12.000 hr): 54.060 mg/mL | percent remaining ([1]; 12.000 hr): 97.793% | concentration in supernatant fluid ([1]; 20.000 hr): 52.360 mg/mL | percent remaining ([1]; 20.000 hr): 94.718% | concentration in supernatant fluid ([1]; 24.000 hr): 51.310 mg/mL | percent remaining ([1]; 24.000 hr): 92.818% | concentration in supernatant fluid ([1]; 29.000 hr): 53.830 mg/mL | percent remaining ([1]; 29.000 hr): 97.377% | concentration in supernatant fluid ([1]; 34.000 hr): 52.880 mg/mL | percent remaining ([1]; 34.000 hr): 95.658% | concentration in supernatant fluid ([1]; 44.000 hr): 53.640 mg/mL | percent remaining ([1]; 44.000 hr): 97.033% | concentration in supernatant fluid ([1]; 48.000 hr): 52.730 mg/mL | percent remaining ([1]; 48.000 hr): 95.387% | concentration in supernatant fluid ([1]; 68.000 hr): 53.560 mg/mL | percent remaining ([1]; 68.000 hr): 96.889% | concentration in supernatant fluid ([1]; 92.000 hr): 53.560 mg/mL | percent remaining ([1]; 92.000 hr): 96.889% | concentration in supernatant fluid ([2]; 0.0000 hr): 56.730 mg/mL | concentration in supernatant fluid ([2]; 2.0000 hr): 52.420 mg/mL | concentration in supernatant fluid ([2]; 4.5000 hr): 51.340 mg/mL | concentration in supernatant fluid ([2]; 7.0000 hr): 50.470 mg/mL | concentration in supernatant fluid ([3]; 0.0000 hr): 30.850 mg/mL | concentration in supernatant fluid ([3]; 6.2500 hr): 30.820 mg/mL | percent remaining ([3]; 6.2500 hr): 99.903% | concentration in supernatant fluid ([3]; 15.250 hr): 29.870 mg/mL | percent remaining ([3]; 15.250 hr): 96.823% | concentration in supernatant fluid ([3]; 25.750 hr): 28.250 mg/mL | percent remaining ([3]; 25.750 hr): 91.572% | concentration in supernatant fluid ([3]; 28.000 hr): 27.980 mg/mL | percent remaining ([3]; 28.000 hr): 90.697% | concentration in supernatant fluid ([3]; 44.250 hr): 25.000 mg/mL | percent remaining ([3]; 44.250 hr): 81.037% | concentration in supernatant fluid ([3]; 63.500 hr): 21.760 mg/mL | percent remaining ([3]; 63.500 hr): 70.535% | concentration in supernatant fluid ([3]; 65.000 hr): 20.340 mg/mL | percent remaining ([3]; 65.000 hr): 65.932% | concentration in supernatant fluid ([4]; 0.0000 hr): 55.260 mg/mL | concentration in supernatant fluid ([4]; 3.0000 hr): 54.670 mg/mL | percent remaining ([4]; 3.0000 hr): 98.932% | concentration in supernatant fluid ([4]; 6.0000 hr): 49.100 mg/mL | percent remaining ([4]; 6.0000 hr): 88.853% | concentration in supernatant fluid ([4]; 9.0000 hr): 47.810 mg/mL | percent remaining ([4]; 9.0000 hr): 86.518% | concentration in supernatant fluid ([4]; 19.000 hr): 43.490 mg/mL | percent remaining ([4]; 19.000 hr): 78.701% | concentration in supernatant fluid ([4]; 23.500 hr): 39.120 mg/mL | percent remaining ([4]; 23.500 hr): 70.793% | concentration in supernatant fluid ([4]; 28.000 hr): 36.290 mg/mL | percent remaining ([4]; 28.000 hr): 65.671% | concentration in supernatant fluid ([4]; 32.500 hr): 33.540 mg/mL | percent remaining ([4]; 32.500 hr): 60.695% | concentration in supernatant fluid ([4]; 43.000 hr): 30.370 mg/mL | percent remaining ([4]; 43.000 hr): 54.958% | concentration in supernatant fluid ([4]; 49.000 hr): 21.580 mg/mL | percent remaining ([4]; 49.000 hr): 39.052%
